Assay results reported in ChEMBL document CHEMBL2176897, “Synthesis and biological evaluation (in vitro and in vivo) of cyclic arginine-glycine-aspartate (RGD) peptidomimetic-paclitaxel conjugates targeting integrin αVβ3” (J Med Chem, 2012).
Calls of active or inactive are those of the source. The calls are words filed in the database; no cut-off is given here.

Assays:
[1] = biological target: Integrin alpha-V/beta-3 (Homo sapiens, UniProt P05106+P06756); assay: Competitive inhibition of biotinylated vitronectin to integrin alphaVbeta3 receptor after 3 hrs by microplate reader analysis; format: protein-complex assay
[2] = tested on: PANC-1; assay: Cytotoxicity against human PANC1 cells after 72 hrs by coulter counter analysis; format: functional, cell-based; conditions: PANC-1, 72 h
[3] = Stability of the compound in 0.9% NaCl in H2O/Cremophor EL/ethanol 90:5:5 v/v at 1.92 mM after 2 days by HPLC analysis; format: physicochemical; conditions: 48 h, 1920 µM
[4] = Antitumor activity against cisplatin-resistant human IGROV1/Pt1 cells overexpressing integrin alphaVbeta3 receptors xenografted in athymic Swiss mouse assessed as tumor killing at 15 mg/kg, iv administered every 4 days for 4 times; format: functional, IGROV-1
[5] = Solubility of the compound in 0.9% NaCl in H2O/Cremophor EL/ethanol 90:5:5 v/v at 1.92 mM after 2 days by HPLC analysis; format: physicochemical; conditions: 48 h, 1920 µM
[6] = tested on: IGROV-1; assay: Cytotoxicity against cisplatin-resistant human IGROV1/Pt1 cells after 72 hrs by coulter counter analysis; format: functional, cell-based; conditions: IGROV-1, 72 h
[7] = tested on: MIA PaCa-2; assay: Cytotoxicity against human MIAPaCa2 cells after 72 hrs by coulter counter analysis; format: functional, cell-based; conditions: MIA PaCa-2, 72 h
[8] = Antitumor activity against cisplatin-resistant human IGROV1/Pt1 cells overexpressing integrin alphaVbeta3 receptors xenografted in athymic Swiss mouse assessed as tumor volume inhibition at 30 mg/kg, iv administered every 4 days for 4 times measured after 10 days relative to control; format: functional; conditions: IGROV-1
[9] = tested on: Mus musculus; assay: Toxicity in athymic Swiss mouse xenografted with cisplatin-resistant human IGROV1/Pt1 cells overexpressing integrin alphaVbeta3 receptors assessed as body weight loss at 15 mg/kg, iv administered every 4 days for 4 times; format: organism-based, IGROV-1; parameters: dose 15 mg/kg, route intravenous; conditions: in vivo, 96 h
[10] = Selectivity ratio of IC50 for integrin alphaVbeta5 receptor to IC50 for integrin alphaVbeta3 receptor
[11] = tested on: U2OS; assay: Cytotoxicity against human U2OS cells after 72 hrs by coulter counter analysis; format: functional, cell-based
[12] = Solubility of the compound in 0.9% NaCl in H2O/Cremophor EL/ethanol 90:5:5 v/v at 1.28 mM measured for 1 week by HPLC analysis; format: physicochemical; conditions: 168 h, 1280 µM
[13] = Half life in human plasma at 10 uM by HPLC analysis; format: ADME, cell-free
[14] = tested on: Mus musculus; assay: Toxicity in athymic Swiss mouse xenografted with cisplatin-resistant human IGROV1/Pt1 cells overexpressing integrin alphaVbeta3 receptors assessed as body weight loss at 30 mg/kg, iv administered every 4 days for 4 times; format: organism-based, IGROV-1; parameters: dose 30 mg/kg, route intravenous; conditions: in vivo, 96 h
[15] = Stability of the compound in 0.9% NaCl in H2O/Cremophor EL/ethanol 90:5:5 v/v at 1.28 mM measured for 1 week by HPLC analysis; format: physicochemical; conditions: 168 h, 1280 µM
[16] = tested on: IGROV-1; assay: Antitumor activity against cisplatin-resistant human IGROV1/Pt1 cells overexpressing integrin alphaVbeta3 receptors xenografted in athymic Swiss mouse assessed as disappearance of tumor lasting at 15 mg/kg, iv administered every 4 days for 4 times measured up to 10 days; format: functional, organism-based; parameters: dose 15 mg/kg
[17] = tested on: IGROV-1; assay: Induction of abberant mitosis in cisplatin-resistant human IGROV1/Pt1 cells overexpressing integrin alphaVbeta3 receptors xenografted in athymic Swiss mouse at 30 mg/kg, iv measured 24 hrs post second treatment by hematoxylin and eosin staining; format: functional, organism-based; parameters: dose 30 mg/kg
[18] = tested on: IGROV-1; assay: Cytotoxicity against human IGROV1 cells after 72 hrs by coulter counter analysis; format: functional, cell-based; conditions: IGROV-1, 72 h
[19] = tested on: SK-OV-3; assay: Cytotoxicity against human SKOV3 cells after 72 hrs by coulter counter analysis; format: functional, cell-based; conditions: SK-OV-3, 72 h
[20] = Half life in mouse plasma at 10 uM by HPLC analysis; format: ADME, cell-free
[21] = biological target: Integrin alpha-V/beta-5 (Homo sapiens, UniProt P06756+P18084); assay: Competitive inhibition of biotinylated vitronectin to integrin alphaVbeta5 receptor after 3 hrs by microplate reader analysis; format: protein-complex assay
[22] = tested on: IGROV-1; assay: Induction of abberant mitosis in cisplatin-resistant human IGROV1/Pt1 cells overexpressing integrin alphaVbeta3 receptors xenografted in athymic Swiss mouse at 30 mg/kg, iv measured 24 hrs post fourth treatment by hematoxylin and eosin staining; format: functional, organism-based; parameters: dose 30 mg/kg
[23] = tested on: IGROV-1; assay: Antitumor activity against cisplatin-resistant human IGROV1/Pt1 cells overexpressing integrin alphaVbeta3 receptors xenografted in athymic Swiss mouse assessed as absence of disease at 30 mg/kg, iv administered every 4 days for 4 times measured up to 10 days; format: functional, organism-based; parameters: dose 30 mg/kg
[24] = Cytostatic activity against human dermal fibroblasts assessed as growth inhibition at 64 to 1000 nM after 72 hrs by coulter counter analysis; conditions: skin fibroblast, 1 µM
[25] = Antitumor activity against cisplatin-resistant human IGROV1/Pt1 cells overexpressing integrin alphaVbeta3 receptors xenografted in athymic Swiss mouse assessed as tumor killing at 30 mg/kg, iv administered every 4 days for 4 times; format: functional, IGROV-1
[26] = Antitumor activity against cisplatin-resistant human IGROV1/Pt1 cells overexpressing integrin alphaVbeta3 receptors xenografted in athymic Swiss mouse assessed as tumor volume inhibition at 15 mg/kg, iv administered every 4 days for 4 times measured after 10 days relative to control; format: functional; conditions: IGROV-1

**Q.** Which results are given for `CC(=O)O[C@H]1C(=O)[C@@]2(C)[C@H]([C@H](OC(=O)c3ccccc3)[C@]3(O)C[C@H](OC(=O)[C@H](OC(=O)CCC(=O)NCc4ccc(CN5C(=O)[C@H]6CC(=O)N[C@@H](CCCNC(=N)N)C(=O)NCC(=O)N[C@@H](CC(=O)O)C(=O)NC[C@H]5C(=O)N6)cc4)[C@@H](NC(=O)c4ccccc4)c4ccccc4)C(C)=C1C3(C)C)[C@]1(OC(C)=O)CO[C@@H]1C[C@@H]2O`?
**A.** IC50 [1]: 5.2 nM; IC50 [2]: 2.4 nM; Stability [3]: Unstable; LCK [4]: 0.3; solubility [5]: Insoluble; IC50 [6]: 4.9 nM; IC50 [7]: 2.3 nM; inhibition in vivo at 30 mg/kg [8]: 85%; Activity [9]: 0%; Ratio IC50 [10]: 20; IC50 [11]: 12.8 nM; solubility [12]: soluble; half-life at 10 µM [13]: 2.38 h; Activity [14]: 3%; Stability [15]: Stable; Activity [16]: Active; Activity [17]: Active; IC50 [18]: 61.3 nM; IC50 [19]: 1.2 nM; half-life at 10 µM [20]: 2.75 h; IC50 [21]: 219 nM; Activity [22]: Active; Activity [23]: Active; growth inhibition (GI) [24]: Non-toxic; LCK [25]: 1.4; inhibition in vivo at 15 mg/kg [26]: 64%
